Reference: patent US20250206730A1 (AUTOTELIC BIO INC., priority 2022, published 2025)

molecular target: T1, ALK5 kinase (Homo sapiens, UniProt P36897); experiment: LanthaScreen Eu Kinase Binding Assay; conditions: Kinase Tracer 178, Eu-anti-GST Antibody, read-out: IC50 Enzyme
T1 sequence (P36897 34-503): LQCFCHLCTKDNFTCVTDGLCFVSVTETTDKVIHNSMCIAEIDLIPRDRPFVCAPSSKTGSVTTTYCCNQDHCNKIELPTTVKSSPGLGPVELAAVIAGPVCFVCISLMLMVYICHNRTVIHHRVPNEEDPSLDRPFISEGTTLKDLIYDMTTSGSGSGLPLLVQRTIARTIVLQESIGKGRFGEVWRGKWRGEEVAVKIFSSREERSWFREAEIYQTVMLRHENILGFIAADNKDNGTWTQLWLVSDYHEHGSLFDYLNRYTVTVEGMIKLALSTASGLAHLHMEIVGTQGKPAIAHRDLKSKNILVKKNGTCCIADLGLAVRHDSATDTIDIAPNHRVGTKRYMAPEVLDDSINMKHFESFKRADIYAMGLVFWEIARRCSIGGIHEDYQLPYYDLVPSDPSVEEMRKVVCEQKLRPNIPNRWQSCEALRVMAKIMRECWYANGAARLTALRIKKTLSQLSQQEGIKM
Method: [Example 1] LanthaScreen Eu Kinase Binding Assay
4 μL of 4× Test Compound in 4% DMSO and 4 μL of 4× Kinase in Kinase buffer were added to wells (low volume, white 384-well plate (Greiner Cat. #784207)). The plate was shaken for 30 seconds, centrifuged for 10 seconds at 1000 rpm, and incubated at RT for 30 minutes. Then, 4 μL of 4× Eu-anti-GST Antibody and 4 μL of 4× Kinase Tracer 178 were added to the wells. The plate was shaken for 30 seconds, centrifuged for 10 seconds at 1000 rpm, and incubated at RT for 60 minutes. Fluorescence was measured by a plate reader, Biotek Synergy H1 (Vermont, USA) under the following conditions. • Excitation: 340 nm (3 nm bandpass) • Kinase tracer emission: 665 nm (10 nm bandpass) • Eu Ab emission: 615 nm (10 nm bandpass) • Emission ratio=665 nm (tracer)/615 nm (Eu Ab) • The higher the binding affinity of compound to ALK5 kinase is, the less the emission ratio is.

| IC50 | SMILES |
| --- | --- |
| < 100 nM | CNc1nc(-c2ccccc2)c(Oc2ccnc(Nc3ccnc(C(C)(C)O)c3)c2)s1 [A-54, 2-(4-((4-((2-(Methylamino)-4-phenylthiazol-5-yl)oxy)pyridin-2-yl)amino)pyridin-2-yl)propan-2-ol] |
| < 100 nM | Cc1cccc(-c2nc(N)sc2Oc2ccnc(Nc3cccc(S(N)(=O)=O)c3)c2)n1 [A-247, 3-((4-((2-Amino-4-(6-methylpyridin-2-yl)thiazol-5-yl)oxy)pyridin-2-yl)amino)benzenesulfonamide] |
| < 100 nM | CNc1nc(-c2ccccc2)c(Oc2ccnc(Nc3ccc(C(C)(C)O)nc3)c2)s1 [A-55, 2-(5-((4-((2-(Methylamino)-4-phenylthiazol-5-yl)oxy)pyridin-2-yl)amino)pyridin-2-yl)propan-2-ol] |

tested on: TGF-β signaling; experiment: Assay for evaluating cellular inhibition of TGF-β signaling, 4T1 (SBE-luc2P) luciferase reporter; assay type: cell-based; conditions: Mus musculus, 4T1, 4T1 (SBE-luc2P) transient pool, 0.2% FBS, 2 h pre-treatment, TGF-β1 2 ng/mL 24 h; read-out: IC50 4T1 Cell
Method: [Example 2] Assay for Evaluating Cellular Inhibition of TGF-β Signaling
4T1 (SBE-luc2P) transient pool that have SBE-luc2P (hygro) expression plasmid or HEK293 (SBE reporter) stable cells (BPS bioscience) were seeded at 6×10^3 cells/well or 2.5×10^4 cells/well in 96-well plate, respectively. 4T1 (SBE-luc2P) transient pool were pre-treated with novel compound synthesized in Example 1 above in 0.2% FBS at approximately 60% confluence at 37° C. in 5% CO2. Also, HEK293 (SBE reporter) stable cells were pre-treated with each test compounds of formula in 0.5% FBS at approximately 80% confluence at 37° C. in 5% CO2. After 2 hours, cells were treated with TGF-β1 (2 ng/mL) for 24 h at 37° C. in 5% CO2. Cell lysates were prepared using Luciferase Assay (Promega) according to the manufacturer's instruction, and luminescence was measured by a plate reader, Biotek Synergy H1 (Vermont, USA).

| SMILES | IC50 |
| --- | --- |
| Nc1nc(-c2ccccc2)c(Oc2ccnc(Nc3cccnc3)c2)s1 [A-6, 4-Phenyl-5-((2-(pyridin-3-ylamino)pyridin-4-yl)oxy)thiazol-2-amine] | > 100 nM |
| Nc1nc(-c2ccccc2)c(Oc2ccnc(Nc3cccc(S(=O)(=O)C(F)(F)F)c3)c2)s1 [A-17, 4-Phenyl-5-((2-((3-((trifluoromethyl)sulfonyl)phenyl)amino)pyridin-4-yl)oxy)thiazol-2-amine] | > 100 nM |
| Cn1cc(Nc2cc(Oc3sc(N)nc3-c3ccccc3)ccn2)cn1 [A-37, 5-((2-((1-Methyl-1H-pyrazol-4-yl)amino)pyridin-4-yl)oxy)-4-phenylthiazol-2-amine] | > 100 nM |
| Nc1nc(-c2ccccc2)c(Oc2ccnc(NCc3cccc(F)c3)c2)s1 [A-21, 5-((2-((3-Fluorobenzyl)amino)pyridin-4-yl)oxy)-4-phenylthiazol-2-amine] | > 100 nM |
| Cc1nc(-c2ccccc2)c(Oc2ccnc(Nc3ccnc(C(N)=O)c3)c2)s1 [A-102, 4-((4-((2-Methyl-4-phenylthiazol-5-yl)oxy)pyridin-2-yl)amino)picolinamide] | > 100 nM |
| CS(=O)(=O)n1cc(Nc2cc(Oc3sc(N)nc3-c3ccccc3)ccn2)cn1 [A-62, 5-((2-((1-(Methylsulfonyl)-1H-pyrazol-4-yl)amino)pyridin-4-yl)oxy)-4-phenylthiazol-2-amine] | > 100 nM |
| Cc1nc(-c2ccccc2)c(Oc2ccnc(NCc3ccccc3)c2)s1 [A-94, N-Benzyl-4-((2-methyl-4-phenylthiazol-5-yl)oxy)pyridin-2-amine] | > 100 nM |
| Cc1nc(-c2ccccc2)c(Oc2ccnc(Nc3cccnc3)c2)s1 [A-82, 4-((2-Methyl-4-phenylthiazol-5-yl)oxy)-N-(pyridin-3-yl)pyridin-2-amine] | > 100 nM |
| Nc1nc(-c2ccccc2)c(Oc2ccnc(Nc3ccnc(F)c3)c2)s1 [A-30, 5-((2-((2-Fluoropyridin-4-yl)amino)pyridin-4-yl)oxy)-4-phenylthiazol-2-amine] | > 100 nM |
| Cc1nc(-c2ccccc2)c(Oc2ccnc(Nc3cnn(S(=O)(=O)C4CC4)c3)c2)s1 [A-98, N-(1-(Cyclopropylsulfonyl)-1H-pyrazol-4-yl)-4-((2-methyl-4-phenylthiazol-5-yl)oxy)pyridin-2-amine] | > 100 nM |
| COc1ccc(Nc2cc(Oc3sc(N)nc3-c3ccccc3)ccn2)cn1 [A-31, 5-((2-((6-Methoxypyridin-3-yl)amino)pyridin-4-yl)oxy)-4-phenylthiazol-2-amine] | > 100 nM |
| Nc1nc(-c2ccccc2)c(Oc2ccnc(Nc3ccncc3)c2)s1 [A-8, 4-Phenyl-5-((2-(pyridin-4-ylamino)pyridin-4-yl)oxy)thiazol-2-amine] | > 100 nM |
| COC(=O)c1cccc(Nc2cc(Oc3sc(C4CC4)nc3-c3ccccc3)ccn2)n1 [A-131, Methyl 6-((4-((2-cyclopropyl-4-phenylthiazol-5-yl)oxy)pyridin-2-yl)amino)picolinate] | > 100 nM |
| Cc1cccc(-c2nc(C)sc2Oc2ccnc(Nc3cccc(Cc4nnn[nH]4)c3)c2)n1 [A-305, N-(3-((1H-Tetrazol-5-yl)methyl)phenyl)-4-((2-methyl-4-(6-methylpyridin-2-yl)thiazol-5-yl)oxy)pyridin-2-amine] | > 100 nM |
| Cc1nc(-c2ccccc2)c(Oc2ccnc(NCc3cccnc3)c2)s1 [A-81, 4-((2-Methyl-4-phenylthiazol-5-yl)oxy)-N-(pyridin-3-ylmethyl)pyridin-2-amine] | > 100 nM |
| Cc1cccc(-c2nc(C)sc2Oc2ccnc(Nc3cccc(CCC#N)c3)c2)n1 [A-306, 3-(3-((4-((2-Methyl-4-(6-methylpyridin-2-yl)thiazol-5-yl)oxy)pyridin-2-yl)amino)phenyl)propanenitrile] | < 100 nM |
| COc1cc(Nc2cc(Oc3sc(C)nc3-c3ccccc3)ccn2)ccc1N1CCN(C)CC1 [A-106, N-(3-Methoxy-4-(4-methylpiperazin-1-yl)phenyl)-4-((2-methyl-4-phenylthiazol-5-yl)oxy)pyridin-2-amine] | < 100 nM |
| Nc1nc(-c2ccccc2)c(Oc2ccnc(NCc3cccnc3)c2)s1 [A-28, 4-Phenyl-5-((2-((pyridin-3-ylmethyl)amino)pyridin-4-yl)oxy)thiazol-2-amine] | > 100 nM |
| Nc1nc(-c2ccccc2)c(Oc2ccnc(Nc3cn[nH]c3)c2)s1 [A-38, 5-((2-((1H-Pyrazol-4-yl)amino)pyridin-4-yl)oxy)-4-phenylthiazol-2-amine] | > 100 nM |
| CNC(=O)c1cccc(Nc2cc(Oc3sc(N)nc3-c3ccccc3)ccn2)c1 [A-23, 3-((4-((2-Amino-4-phenylthiazol-5-yl)oxy)pyridin-2-yl)amino)-N-methylbenzamide] | < 100 nM |

More lines, now with the values ahead:

| IC50 | SMILES |
| --- | --- |
| < 100 nM | Cc1nc(-c2ccccc2)c(Oc2ccnc(Nc3cccc(C(=O)N(C)C)c3)c2)s1 [A-67, N,N-Dimethyl-3-((4-((2-methyl-4-phenylthiazol-5-yl)oxy)pyridin-2-yl)amino)benzamide] |
| < 100 nM | Cc1cccc(-c2nc(C)sc2Oc2ccnc(Nc3cccc(CCc4nn[nH]n4)c3)c2)n1 [A-307, N-(3-(2-(2H-tetrazol-5-yl)ethyl)phenyl)-4-((2-methyl-4-(6-methylpyridin-2-yl)thiazol-5-yl)oxy)pyridin-2-amine] |
| < 100 nM | Cc1nc(-c2ccccc2)c(Oc2ccnc(Nc3cccc(C(N)=O)n3)c2)s1 [A-101, 6-((4-((2-Methyl-4-phenylthiazol-5-yl)oxy)pyridin-2-yl)amino)picolinamide] |
| < 100 nM | Cc1nc(-c2ccccc2)c(Oc2ccnc(Nc3ccnc(Cl)c3)c2)s1 [A-89, N-(2-Chloropyridin-4-yl)-4-((2-methyl-4-phenylthiazol-5-yl)oxy)pyridin-2-amine] |
| < 100 nM | Cc1nc(-c2ccccc2)c(Oc2ccnc(Nc3cccc(S(=O)(=O)N(C)C)c3)c2)s1 [A-74, N,N-Dimethyl-3-((4-((2-methyl-4-phenylthiazol-5-yl)oxy)pyridin-2-yl)amino)benzenesulfonamide] |
| < 100 nM | CN(C)S(=O)(=O)c1cccc(Nc2cc(Oc3sc(N)nc3-c3ccccc3)ccn2)c1 [A-13, 3-((4-((2-Amino-4-phenylthiazol-5-yl)oxy)pyridin-2-yl)amino)-N,N-dimethylbenzenesulfonamide] |
| < 100 nM | CCS(=O)(=O)c1cccc(Nc2cc(Oc3sc(N)nc3-c3ccccc3)ccn2)c1 [A-34, 5-((2-((3-(Ethylsulfonyl)phenyl)amino)pyridin-4-yl)oxy)-4-phenylthiazol-2-amine] |
| < 100 nM | COc1cc(Nc2cc(Oc3sc(N)nc3-c3ccccc3)ccn2)ccn1 [A-24, 5-((2-((2-Methoxypyridin-4-yl)amino)pyridin-4-yl)oxy)-4-phenylthiazol-2-amine] |
| < 100 nM | Nc1nc(-c2ccccc2)c(Oc2ccnc(Nc3cccc(NS(=O)(=O)C4CC4)c3)c2)s1 [A-16, N-(3-((4-((2-Amino-4-phenylthiazol-5-yl)oxy)pyridin-2-yl)amino)phenyl)cyclopropanesulfonamide] |
| < 100 nM | Cc1nc(-c2ccccc2)c(Oc2ccnc(Nc3cccc(S(=O)(=O)NC4CC4)c3)c2)s1 [A-76, N-Cyclopropyl-3-((4-((2-methyl-4-phenylthiazol-5-yl)oxy)pyridin-2-yl)amino)benzenesulfonamide] |
